Test results from US10829798B2, “DNA-linked enzyme-coupled assays” (THE REGENTS OF THE UNIVERSITY OF CALIFORNIA, priority 2014, dated 2020).

Target: T1, OleD (Streptomyces antibioticus, UniProt Q53685, P55A/R82V/R83E/T84P)
T1 construct: made in house; host or cells: PURExpress In Vitro Protein Synthesis Kit (NEB E6800L), cell-free transcription/translation, linear DNA with T7 promoter
Assay: DLEnCA with purified recombinant OleD, agarose gel readout of MfeI digestion of probe DNA
Format: biochemical
Conditions: purified OleD 0.5 μM, acceptor 0.5 mM, 2% agarose gel
Experimental: FIG. 2A-FIG. 2D. DNA-Linked Enzyme-Coupled Assay using purified model enzyme (OleD). A. The OleD-catalyzed glucosylation of kaempferol using UDP-Glc as a donor-molecule. B. Purified recombinant OleD (0.5 μM) was incubated with probe DNA (4.5 nM) in the presence of kaempferol (0.5 mM) and various concentrations of UDP-Glc at 37° C. for 1 hour. Following incubation with TbGT, DNA was digested with MfeI. Digests were analyzed on a 2% agarose gel. […] (ii) A representative gel of the UDP-Glc titration reaction, as-well-as a “ladder” depicting expected DNA digestion sizes, is shown. C. […] Digests were analyzed on a 2% agarose gel (n=4). […] Digests were analyzed on a 2% agarose gel (n=4). […]
In order to verify that DNA protection using TbGT could be used to follow an enzymatic reaction under conditions amenable to downstream DNA analyses, the ability of recombinant OleD to reduce concentrations of UDP-Glc while in the presence of the substrate kaempferol was first tested. […] To identify if this reaction could be monitored by modification of DNA, recombinant OleD was purified (FIG. 5) and incubated with 5-hm-cytosine-modified probe DNA (4.5 nM probe DNA containing 2.5 μM modified 5-hm-cytosines), kaempferol (0.5 mM), and UDP-Glc concentrations varying from 10 μM to 1 mM in a buffered solution. […]

T1 sequence (Q53685 other isoform, or with tags, fused parts or gaps P55A/R82V/R83E/T84P): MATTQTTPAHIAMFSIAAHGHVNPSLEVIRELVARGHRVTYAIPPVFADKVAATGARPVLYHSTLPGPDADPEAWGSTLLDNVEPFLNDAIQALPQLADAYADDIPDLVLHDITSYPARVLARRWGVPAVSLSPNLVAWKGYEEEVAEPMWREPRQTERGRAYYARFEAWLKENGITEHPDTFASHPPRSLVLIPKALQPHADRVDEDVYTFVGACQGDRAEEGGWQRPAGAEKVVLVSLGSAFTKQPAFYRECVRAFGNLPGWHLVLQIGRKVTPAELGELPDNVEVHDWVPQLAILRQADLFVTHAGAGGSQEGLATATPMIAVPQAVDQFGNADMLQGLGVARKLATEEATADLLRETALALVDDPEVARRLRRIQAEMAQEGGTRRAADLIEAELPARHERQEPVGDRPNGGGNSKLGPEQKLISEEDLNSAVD

| Compound | digestion of probe DNA by MfeI (loss of TbGT protection) (20 μM starting UDP-Glc, all components present) | digestion of probe DNA by MfeI (loss of TbGT protection) (UDP-Glc titration) |
| --- | --- | --- |
| O=c1c(O)c(-c2ccc(O)cc2)oc2cc(O)cc(O)c12 [I, kaempferol] | significant DNA digestion occurred | – |
| O=C(O)c1ccc(O)cc1 [XI, 4-hydroxybenzoic acid] | – | no DNA was digested |
